Reference: patent US11299519B2, “Host cells and methods using a repressor polypeptide and an inducible promoter for gene expression” (The Regents of the University of California, priority 2015, dated 2022)

What was measured:
Eil-promoter = assay: Induction of Eil-promoter (EilR-regulated, reporter gene) by hydrophobic cations; assay type: cell-based, E. coli; details: preliminary results for the leuco-form
Description: A series of EilR-regulated promoters have been identified by creating a library that contains an eil-operator and randomized core promoter sequences coupled to a reporter gene. […] Subsequent optimizations have led to several Eil-promoters with improved properties.
The Eil- or Qac-promoters are useful as tools for monitoring real time oxidative stress. […] An Eil-promoter or Qac-promoter coupled with a reporter gene can serve as a signal-amplifying sensor for real time in vivo oxidative stress, which could be useful to monitor and understand physiological stress reactions. Similarly, heme catalyzes the oxidation of the colorless leucocrystal violet to its purple cation by reducing hydrogen peroxide. This colorful radical reaction is utilized in forensics to uncover removed blood stains. Crystal violet induces Eil-biosensors at concentrations that are much lower than the eye can detect. Such a sensor could be a sensitive tool for blood detection in forensic analyses.
Numbers in brackets indicate the concentration applied for induction (in μM).

SmvR = assay: RFP expression from an Eil-promoter regulated by EilR homologue SmvR; assay type: cell-based, Salmonella typhimurium; details: in E. coli; eilO consensus operator
Description: (§1) The EilR homologues SmvR (from Salmonella typhimurium) and KmrR (from Klebsiella BRL6-2) regulate RFP expression from an Eil-promoter in E. coli. Like EilR, these repressors bind to the eilO consensus operator and are induced e.g. by crystal violet.

KmrR = assay: RFP expression from an Eil-promoter regulated by EilR homologue KmrR; assay type: cell-based, Klebsiella BRL6-2; details: in E. coli; eilO consensus operator
Description: as §1

p1-promoter = assay: RFP expression from the p1-promoter in various bacteria; assay type: cell-based, Three different gram-negative bacteria; details: same plasmid in all strains (BBR origin of replication)
Description: All strains contain the same plasmid (BBR origin of replication).
The functionality of Eil-promoters is not restricted to E. coli and offers an expression platform in various host organisms. […] In addition to bacterial promoters, the eil operators can be used to control expression from phage promoters such as T7. […] RFP was expressed from a T7 promoter controlled either by an IPTG-inducible lac operator or an acridine orange-inducible eil operator. The chromosomal T7-RNA polymerase was expressed from a Lac-promoter in both cases (in E. coli BL21-DE3). In the future, T7 RNA-polymerase expression could also be controlled by an Eil-promoter. […] All strains contain the same plasmid (BBR origin of replication).

| SMILES | induction of Eil-promoters (Eil-promoter) | induction of SmvR-regulated RFP expression from an Eil-promoter (SmvR) | induction of KmrR-regulated RFP expression from an Eil-promoter (KmrR) | RFP expression from the p1-promoter on induction (p1-promoter) |
| --- | --- | --- | --- | --- |
| CN(C)c1ccc(C(=C2C=CC(=[N+](C)C)C=C2)c2ccc(N(C)C)cc2)cc1 [crystal violet] | induces Eil-promoters at nanomolar concentrations | induced | induced |  |
| CN(C)c1ccc2cc3ccc(N(C)C)cc3nc2c1 [acridine orange] |  |  |  | express RFP from the p1-promoter |
| CN(C)c1ccc(C(c2ccc(N(C)C)cc2)c2ccc(N(C)C)cc2)cc1 [leucocrystal violet] | does not cause induction |  |  |  |
